Reference: US20070099822A1, “Regulation of tissue mineralization and phosphate metabolism by asarm peptides” (priority 2003, published 2007)
Where two headings read alike, the source gives them in different places. Ends that are not written are not given here.

Tests used:
[1] = test system: Na+ dependent phosphate co-transport in human renal proximal tubule cell-line (Hu-CL8); assay: 33PO4 uptake scintillation proximity assay (SPA) in Hu-CL8; format: cell-based; conditions: Hu-CL8
Experimental: Measurement of ^33PO4 uptake and ^14C-α-methyl D-glucose uptake. A novel technique, scintillation proximity assay (SPA), was used to measure ^33PO4 uptake in-vitro. Human renal proximal-tubule primary cells (RPTEC) were purchased from Clonetics-Biowhittaker (Walkersville, Md.) (cat. no. CC2553) and were cultured and subcultured using the manufacturers recommended protocols, methods, buffers and media (cat. nos. CC3190, CC5034). Also a human renal cell-line (Hu-CL8) was cultured as previously described (Rowe et al. Candidate 56 and 58 kDa protein(s) responsible for mediating the renal defects in oncogenic hypophosphatemic osteomalacia. Bone 18(2):159-169, 1996). For ^33PO4-uptake measurement cells were grown in REBM media supplemented with 5% fetal calf serum (REBM-FCS) to 80% confluence (Clonetics-Biowhitaker, Walkersville, Md.: cat. nos. CC2553, CC3190 and CC5034) and seeded into 96 well (3000 cells/well) cytostar-T scintillating-microplates (Amersham-Pharmacia Biotech, Piscataway, N.J.: cat. no. RPNQ 0162). Cells were then cultured in 200 μL of REBM-FCS media for 24 h. Media was then replaced with serum free media (REBM) and the cells incubated for a further 3-4 h with Hu-MEPE, PTH (1-34) or media control respectively in REBM media. The concentrations of PTH (1-34) and Hu-MEPE were […] and each experimental dose was repeated eight times for statistical analysis. Following incubation media was removed and replaced with either phosphate uptake buffer (PUB) consisting of 150 mM NaCl/1 mM Cacl2/1.8 mM MgSO4/10 mM HEPE pH 7.0/0.1 mM phosphate buffer pH 7.0 and 3 uCi mL^−1 33P as orthophosphoric acid (18 MBq/mL or 5775.7 Gbq/mg stock solution Perkin Elmer, Wellesley, Mass.: cat. no. NEZ080). In order to determine the Na-dependent phosphate co-transporter activity a separate set of control cells were incubated with the same buffer but with choline chloride (150 mM) substituted for NaCl (CHUB buffer). […] Due to the unique design of the 96 well cytostar-plate radioactive decay in solution is not detected by the counter. In contrast, radioisotope attached to or taken into the cells initiates release of plastic-scintillant photons that are detected by the top-counter photo-multiplier tube. Thus, no washes are required and direct CPM can be counted in living cells. […] Conversion of a tetrazolium salt to a colored formazan product by living cells was then measured at 490 nm using a 96 well multi-well spectrophotometer with KC-4 software (absorbance at 490 nm is directly proportional to the number of living cells). Na-dependent ^33P uptake was then calculated by subtracting background counts and the choline chloride non Na-dependent ^33P uptake and results expressed as ^33PO4 femtomoles/10^4-cells/6 min. […]

Male ICR-Swiss mice = assay: Intraperitoneal administration of Hu-MEPE and PTH (1-34) into mice, serum and urine assays; format: in vivo
Experimental: Intraperitoneal administration of Hu-MEPE and PTH (1-34) into mice. Male ICR-Swiss mice were used as recipients for intraperitoneal administration (100 μl) of 0.1% phosphate-buffered saline/0.1% bovine serum albumin (vehicle) and experimental conditions (Hu-MEPE and PTH 1-34) dissolved in 100 μL of vehicle. Two separate (repeat) experiments were conducted consisting of four groups with 6 and 7 animals per group. The control group was administered with 100 μL of vehicle (Group-1). Group-2 consisted of animals administered with 0.8 μg/injection of parathyroid hormone (PTH 1-34). Group 3 were injected with 0.4 μg/injection of Hu-MEPE and Group-4 with 4 μg/injection of Hu-MEPE. On day one, three bolus injections were given at 0, 3 h, and 6 h. Serum samples were then collected via retro-orbital bleed one hour after the 6 h bolus administration. The next day or 30 hours after the first bolus a fourth bolus (same amount) was given and after 1 h the animals were sacrificed and serum prepared after cardiac exsanguination. The total amounts of PTH and MEPE administered over the 30 h were 80 μg/kg/30 h PTH 1-34, 40 μg/kg/30 h Hu-MEPE (MEPE-40) and 400 μg/kg/30 h Hu-MEPE (MEPE-400). Each group was placed in a separate metabolic cage and urine was collected for the 6-hour period. After the first 6-hour urine collection mice were replaced in thoroughly cleaned metabolic cages for the remaining 24 hours. The second 24-hour urine was collected immediately after the animals were sacrificed. The urine volumes for the second and first collections were measured. Collecting urine samples from large numbers of small mice over the time frame of the experiment was not feasible. Therefore, urine samples from each group (n=7) were pooled and volumes measured via a specially designed collecting duct in the metabolic cage. To ensure reproducibility the experiment was repeated twice (the same changes occurred). To calculate the fractional excretion of phosphate (FEP) the following equation was used: 100−(100×(1−(A/B))) where A=(urine phosphorus in mg/dL)×(serum creatinine in mg/dL) and B=(urine creatinine in mg/dL)×(serum phosphorus in mg/dL). To calculate renal phosphorus clearance (RPC) in mL/minute following computation was used: (urine phosphorus in mg/dL)×(urinary volume in mL)/((serum phosphorus in mg/dL)×(time of collection in minutes)). The phosphate excretion index (PEI) was calculated using the same method described by Shimada et al. (Cloning and characterization of FGF23 as a causative factor of tumor-induced osteomalacia, Proc Natl Acad Sci USA 98:6500-6505, 2001) using the following formula: ((urinary concentration of phosphorus in mg/dL)/(serum concentration of phosphorus in mg/dL))/(total urinary creatinine in mg).
Serum and urine assays. Serum and urine assays for phosphate, calcium, chloride, potassium, creatinine, glucose and alkaline phosphatase were accomplished using 96 well format KC4-spectrophotometer multiplate kinetic/end-point analyses using routine methods and diagnostic-kits Sigma-Diagnostics). Serum 1,25-dihydroxy vitamin-D3 levels were estimated using the method of Reinhardt, et al. (A microassay for 1,25-dihydroxyvitamin D not requiring high performance liquid chromatography: application to clinical studies, J Clin Endocrinol Metab 58:91-98, 1984). Analysis of data for fractional excretion of phosphate (FEP) was carried out following the same method described previously by Shimada et al. (Mutant FGF-23 responsible for autosomal dominant hypophosphatemic rickets is resistant to proteolytic cleavage and causes hypophosphatemia in vivo, Endocrinology 143:3179-82, 2002) for FGF23 bolus administration studies and by Nesbitt et al. (Crosstransplantation of kidneys in normal and Hyp mice: Evidence that the Hyp mouse phenotype is unrelated to an intrinsic renal defect, J Clin Invest 89:1453-59, 1992) for renal cross-transplantation experiments in Hyp mice.
Statistical methods. […]

[2] = test system: Na+ dependent phosphate co-transport in primary human renal proximal tubule epithelial cells (RPTEC); assay: 33PO4 uptake scintillation proximity assay (SPA) in RPTEC; format: cell-based
Experimental: Measurement of ^33PO4 uptake and ^14C-α-methyl D-glucose uptake. A novel technique, scintillation proximity assay (SPA), was used to measure ^33PO4 uptake in-vitro. Human renal proximal-tubule primary cells (RPTEC) were purchased from Clonetics-Biowhittaker (Walkersville, Md.) (cat. no. CC2553) and were cultured and subcultured using the manufacturers recommended protocols, methods, buffers and media (cat. nos. CC3190, CC5034). Also a human renal cell-line (Hu-CL8) was cultured as previously described (Rowe et al. Candidate 56 and 58 kDa protein(s) responsible for mediating the renal defects in oncogenic hypophosphatemic osteomalacia. Bone 18(2):159-169, 1996). For ^33PO4-uptake measurement cells were grown in REBM media supplemented with 5% fetal calf serum (REBM-FCS) to 80% confluence (Clonetics-Biowhitaker, Walkersville, Md.: cat. nos. CC2553, CC3190 and CC5034) and seeded into 96 well (3000 cells/well) cytostar-T scintillating-microplates (Amersham-Pharmacia Biotech, Piscataway, N.J.: cat. no. RPNQ 0162). Cells were then cultured in 200 μL of REBM-FCS media for 24 h. Media was then replaced with serum free media (REBM) and the cells incubated for a further 3-4 h with Hu-MEPE, PTH (1-34) or media control respectively in REBM media. The concentrations of PTH (1-34) and Hu-MEPE were […] and each experimental dose was repeated eight times for statistical analysis. Following incubation media was removed and replaced with either phosphate uptake buffer (PUB) consisting of 150 mM NaCl/1 mM Cacl2/1.8 mM MgSO4/10 mM HEPE pH 7.0/0.1 mM phosphate buffer pH 7.0 and 3 uCi mL^−1 33P as orthophosphoric acid (18 MBq/mL or 5775.7 Gbq/mg stock solution Perkin Elmer, Wellesley, Mass.: cat. no. NEZ080). In order to determine the Na-dependent phosphate co-transporter activity a separate set of control cells were incubated with the same buffer but with choline chloride (150 mM) substituted for NaCl (CHUB buffer). After 10 min at 37° C. the reaction was terminated by removing the PUB and CHUB buffers and replacing with STOP buffer (CHUB buffer without radioisotope). The cytostar scintillation plates were then directly assayed for counts (CPM) using a Hewlett-Packard (Palo Alto, Calif.) Multiplate Top-counter calibrated for ^33P SPA assay. Due to the unique design of the 96 well cytostar-plate radioactive decay in solution is not detected by the counter. In contrast, radioisotope attached to or taken into the cells initiates release of plastic-scintillant photons that are detected by the top-counter photo-multiplier tube. Thus, no washes are required and direct CPM can be counted in living cells. Following CPM determination the buffers were removed from the living cells and fresh media supplemented with cell-titre-96 (Promega-Biotech, Madison, Wis.: cat. no. G5421) cell-number detection media. Cells were then further incubated at 37° C. for 4 h. Conversion of a tetrazolium salt to a colored formazan product by living cells was then measured at 490 nm using a 96 well multi-well spectrophotometer with KC-4 software (absorbance at 490 nm is directly proportional to the number of living cells). Na-dependent ^33P uptake was then calculated by subtracting background counts and the choline chloride non Na-dependent ^33P uptake and results expressed as ^33PO4 femtomoles/10^4-cells/6 min. […]

[3] = molecular target: rabbit polyclonal antibodies raised against ASARM-peptide (SEQ ID NO. 5); assay: competitive chemiluminescent ELISA: anti-ASARM polyclonal on protein-G plates, 0.5 ng/mL biotinylated ASARM-peptide as competitor, one site binding hyperbola of % quenching
[4] = molecular target: rabbit polyclonal antibodies raised against ASARM-peptide (SEQ ID NO. 5); assay: competitive chemiluminescent ELISA: anti-ASARM polyclonal on protein-G plates, 0.5 ng/mL biotinylated ASARM-peptide as competitor

Molecule	inhibition of Na+ dependent phosphate co-transport [1]	fractional excretion of phosphate (FEP) (Male ICR-Swiss mice; 7 h, PTH 80 ug/kg/30 h, vehicle 7.8%)	urine phosphate (Male ICR-Swiss mice; 7 h, PTH 80 ug/kg/30 h i.p., vehicle 31.8)	fractional excretion of phosphate (FEP) (Male ICR-Swiss mice; 31 h, PTH 80 ug/kg/30 h, vehicle 28.7%)	serum alkaline phosphatase (Male ICR-Swiss mice; 31 h, PTH 80 ug/kg/30 h, vehicle 65.06)	serum 1,25-dihydroxy vitamin-D3 (Male ICR-Swiss mice; 31 h, PTH 1-34 80 ug/kg/30 h, pooled, vehicle 25.2)	serum phosphate (Male ICR-Swiss mice; 31 hours, PTH 80 ug/kg/30 h i.p., vehicle 11.94)	urine phosphate (Male ICR-Swiss mice; 31 h second urine, PTH 80 ug/kg/30 h, vehicle 175.9)	serum phosphate vs vehicle (Male ICR-Swiss mice; after 7 hours, i.p., PTH and MEPE animals)	serum calcium vs vehicle (Male ICR-Swiss mice; after 7 hours, PTH 80 ug/kg/30 h, low Hu-MEPE dose)	urine calcium vs Hu-MEPE and vehicle (Male ICR-Swiss mice; after 31 hours, PTH)	inhibition of Na+ dependent phosphate co-transport [2]	inhibition of Na+ dependent phosphate co-transport ([2]; listed as PTH)	Kd [3]	Qmax (quench maximum) [4]
PTH (1-34): parathyroid hormone (PTH 1-34), used as a positive control (SVSEIQLMHNLGKHLNSMERVEWLRKKLQDVHNF; Parathyroid hormone; UniProt P01270 32-65, looked up, fragment) [reference compound]	Dose dependent inhibition	27.4%	61.6 mg/dL	53.3%	46.3 U/L	61.2 pg/mL	8.32 mg/dL	238.3 mg/dL	no significant differences	significantly elevated	significantly hypocalciuric	Dose dependent inhibition	dose-dependent inhibition	–	–
RDDSSESSDSGSSSESDGD (not fully specified)	–	–	–	–	–	–	–	–	–	–	–	–	–	7.5 ng/mL	98.7%
